Entries after “also recorded” stand apart in the source; their conditions may differ. Where two headings read alike, the source gives them in different places.
B1: protease-associated domain of vacuolar sorting receptor isoform 1 (VSR1-PA) (domain or fragment, Arabidopsis thaliana, UniProt P93026 20-182, looked up)
chain: RFVVEKNNLKVTSPDSIKGIYECAIGNFGVPQYGGTLVGTVVYPKSNQKACKSYSDFDISFKSKPGRLPTFVLIDRGDCYFTLKAWIAQQAGAAAILVADSKAEPLITMDTPEEDKSDADYLQNITIPSALITKTLGDSIKSALSGGDMVNMKLDWTESVPHP
B2: C-terminal peptide of CRU1 (YRVAAA) (peptide)
peptide: YRVAAA

Key:
PSV = conditions: C terminus of phaseolin; cited from earlier work
phaseolin = conditions: cited from earlier work
VSR1-PA = conditions: cited from earlier work
VSR1-NT [1] = assay: Competitive peptide pull-down: elution of Cru1-ctVSD-bound VSR1-NT; design: species or system Arabidopsis thaliana; conditions: 2 mM peptide in VSR binding buffer, 4C, 4 hours, T7 immunoblot
VSR1-NT [2] = assay: Competitive peptide pull-down: elution of aleurain-ssVSD-bound VSR1-NT; design: species or system Arabidopsis thaliana; conditions: 2 mM peptide in VSR binding buffer, 4C, 4 hours; T7 immunoblot
soybean seeds = conditions: cited from earlier work
VSR1 = conditions: cited from earlier work
VSR1-PA-R95M = assay: Thermal shift assay; assay type: binding, Arabidopsis thaliana; conditions: 5 mM peptide, 50 μM VSR1-PA-R95M, pH 7.1; n = 3; ns P > 0.05
[3] = target: B2; assay: thermal shift assay
[4] = target: B1; assay: differential scanning fluorimetry, isothermal analysis
[5] = target: B1; assay: as above; remark: listed apart in the source
[6] = target: B1; assay: crystal structure

For AFVY, the “Targeting of seed proteins to the PSV” value (PSV) is listed as “essential for targeting seed proteins to the PSV” and the “Effect of removing the C-terminal residues on phaseolin” value (phaseolin) is listed as “abolished aggregation of phaseolin and missorted it to the extracellular space”.

In the case of “ADSNPIRPVT [aleurain-ssVSD, reference compound]”, the “Interaction of VSR1-PA with ssVSD” value (VSR1-PA) is given as “VSR1-PA binds to the residues (ADS) preceding the NPIR motif”, the “Elution of Cru1-ctVSD-bound VSR1-NT” value (VSR1-NT [1]) is given as “not by aleurain-ssVSD” and the “Elution of aleurain-ssVSD-bound VSR1-NT” value (VSR1-NT [2]) is given as “eluted”.

For 612PLSSILRAFY621, the “Targeting of GFP to the PSV” value (soybean seeds) is given as “sufficient to target GFP to the PSV in soybean seeds”.

In the case of SYGRPRVAAA [Cru1], the “Binding to VSR1” value (VSR1; earlier studies) is given as “VSR1 could bind to the C-terminal peptide of CRU1; also recorded: VSR1 can bind to the C-terminal sequence”, the “Calcium dependence of binding to VSR1” value (VSR1; pull-down assay) is given as “calcium-dependent” and the “Elution of Cru1-ctVSD-bound VSR1-NT” value (VSR1-NT [1]; listed as Cru1-ctVSD) is given as “only eluted by ctVSD of CRU1”. The “Elution of aleurain-ssVSD-bound VSR1-NT” value (VSR1-NT [2]) was “eluted”.

With SYGRPRVAAAP [Cru1+P] the “Elution of Cru1-ctVSD-bound VSR1-NT” value (VSR1-NT [1]) was “not by aleurain-ssVSD and Cru1+P” and the “Elution of aleurain-ssVSD-bound VSR1-NT” value (VSR1-NT [2]) was “not eluted”.

In the case of YRVAAA, the “Change in Tm of VSR1-PA-R95M (in words)” value (VSR1-PA-R95M) is reported as “no significant change in the Tm of VSR1-PA-R95M”.

In the case of B1, the “increase of Tm” value [3] is reported as 5.3 °C.

In the case of YSDRFV [YSDRFV peptide derived from the ctVSD of VL22], the Kd [4] is reported as 1000 µM and the Kd [5] is reported as 3200 µM.

For B2, the Kd [4] was 2600 µM and the Kd [5] was 9600 µM.

RVAAA [C-terminal pentapeptide (468RVAAA472) of CRU1]: binds [6].

Reference: publication PMC8740768 (Proceedings of the National Academy of Sciences of the …, 2021)
